In PubChem BioAssay AID2060491 (Molecular Pharmacology Branch, DTP, NCI, 2025):
pIC50: −log10 of the molar value.

Test system: 857933-349-R-J2-PDC complex spheroids, viability
Test: Anticancer human tumor 857933-349-R-J2-PDC patient-derived colon adenocarcinoma cell line growth inhibition [GQUAD]
Details: for pIC50: curve of first compound; for viability, T/C: stronger effect = lower value
Excerpt: DNA G-quadruplex Stabilizer Agents in Combinations in Complex Spheroids
A high-throughput screen of multi-cell type tumor spheroids was designed to identify active combinations of DNA G-quadruplex stabilizer agents and targeted small molecules. Complex spheroids include a stromal component modeled by human endothelial cells (HUVEC) and fibroblasts modeled by human mesenchymal stem cells (MSCs). The concentration ranges selected for each drug and investigational agent were based upon clinically achievable concentrations if the clinical Cmax of the agent was known.
Compounds. The drugs and investigational agents: pidnarulex (CX-5461; NSC782164), APTO-253 (NSC789042), BRACO-19 (NSC847499), peposertib (NSC802822), ceralasertib (NSC780249), elimusertib (NSC800525), camonsertib (NSC841442), AZD-1390 (NSC803789), olaparib (NSC753686), talazoparib (NSC767125), ART-558 (NSC835418), sotorasib (NSC818433), MRTX-1133 (NSC836407), SN-38 (NSC673596), topotecan (NSC609699), etoposide (NSC141540), doxorubicin (NSC123127), gemcitabine (NSC613327), 5-fluorouracil (NSC19893), paclitaxel (NSC125973), vemurafenib (NSC761431), panobinostat (NSC761190), R-306465 (JNJ-16241199; NSC773264), adavosertib (NSC754352), TP-3654 (NSC805149), carboplatin (NSC241240), KSQ-4279 (NSC840948), and staurosporine (NSC755774) were obtained from the National Cancer Institute (NCI) Developmental Therapeutics Program Chemical Repository (34). The FDA-approved anticancer drug set is available from the NCI Developmental Therapeutics Program. […] The stock solutions were prepared in dimethyl sulfoxide (DMSO, Sigma-Aldrich, St. Louis, MO, cat. D2650) at 800-fold the tested concentration and stored at -70 degrees C prior to their use. All drugs and investigational agents were tested over a range starting from a high concentration at or near the clinical Cmax and decreasing in half-log increments. If the clinical Cmax for an agent had not been determined, the highest concentration tested was 10 microM.
2.3 Cell Culture. All cells were maintained in an incubator at 37 degrees C and 5% CO2 with 95% humidity. The PDC lines were cultured according to standard operating procedures established by the NCI PDMR. All PDCs were thawed and cultured in Matrigel-coated flasks prepared with a working solution of 1X Ham's F-12 nutrient mix, without supplementation (Invitrogen, cat. 11765054), 100 U/mL penicillin-streptomycin (Invitrogen, cat. 15140122), and 2.5% Matrigel (Corning Inc., cat. 354248) for the first three passages. The 857933-349-R-J2-PDC line was cultured in 6C/Colon 1B media, which includes advanced DMEM/F-12 (Thermo Fisher Scientific, cat. 12634028), 10 mM HEPES (Thermo Fisher Scientific, cat. 15630080), 1X GlutaMAX supplement (Thermo Fisher Scientific, cat. 35050061), 0.1 mg/mL primocin (InvivoGen, cat. ant-pm-2), 10% defined fetal bovine serum, heat inactivated (HyClone Laboratories Inc., cat. SH30070.03HI), 50% L-WRN conditioned media (ATCC, cat. CRL-3276), 1.25 mM N-Acetyl-L-cysteine (Sigma-Aldrich, cat. A9165), 10 mM nicotinamide (Sigma-Aldrich, cat. N0636), 1X B-27 supplement (Thermo Fisher Scientific, cat. 17504044), 1X N-2 supplement (Thermo Fisher Scientific, cat. 17502048), 10 microM Y-27632 dihydrochloride (Tocris Bioscience, cat. 1254), and 50 ng/mL human EGF recombinant protein (Thermo Fisher Scientific, cat. PHG0311). The 485176-168-R4-J1-PDC line was cultured in Panc media, which includes all 6C/Colon 1B media components plus 100 ng/mL human FGF-10 (Thermo Fisher Scientific, cat. 100-26), 500 nM SB-431542 (Selleckchem, cat. S1067), and gastrin (Tocris, cat. 3006).
[…]

[1] = second compound 0.0316 µM, first compound 0.0316 µM
[2] = second compound 0.0316 µM, first compound 0.316 µM
[3] = second compound 0.1 µM, first compound 0.0316 µM
[4] = second compound 0.1 µM, first compound 0.316 µM
[5] = second compound 0.316 µM, first compound 0.0316 µM
[6] = second compound 0.316 µM, first compound 0.316 µM
[7] = second compound 1 µM, first compound 0.0316 µM
[8] = second compound 1 µM, first compound 0.316 µM
[9] = second compound 3.16 µM, first compound 0.0316 µM
[10] = second compound 3.16 µM, first compound 0.316 µM
[11] = second compound 10 µM, first compound 0.0316 µM
[12] = second compound 10 µM, first compound 0.316 µM
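Note: spheroids exposed to compounds for one week before readout.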
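Throughout, for viability, T/C: percent viability relative to vehicle DMSO wells taken as 100%.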

Work on C=CC(=O)N1CCN(c2nc(=O)n(-c3c(C)ccnc3C(C)C)c3nc(-c4c(O)cccc4F)c(F)cc23)C(C)C1 (centres undefined) + CN(C)c1ccc(Nc2c3ccc(NC(=O)CCN4CCCC4)cc3nc3cc(NC(=O)CCN4CCCC4)ccc23)cc1 yielded a pIC50 (second compound 0.0316 µM) of less than 5.00, a pIC50 (second compound 0.1 µM) of less than 5.00 and a pIC50 (second compound 0.316 µM) of less than 5.00. It also gave a pIC50 (second compound 1 µM) of less than 5.00, a pIC50 (second compound 3.16 µM) of less than 5.00 and a pIC50 (second compound 10 µM) of less than 5.00. The viability, T/C [1] was 114%, the viability, T/C (second compound 0.0316 µM, first compound 0.1 µM) was 91.7% and the viability, T/C [2] was 108%. The viability, T/C (second compound 0.0316 µM, first compound 1 µM) was 97.3%, the viability, T/C (second compound 0.0316 µM, first compound 3.16 µM) was 114% and the viability, T/C (second compound 0.0316 µM, first compound 10 µM) was 112%. For the same compound, the viability, T/C [3] was 104%, the viability, T/C (second compound 0.1 µM, first compound 0.1 µM) was 102% and the viability, T/C [4] was 102%. It also gave a viability, T/C (second compound 0.1 µM, first compound 1 µM) of 102%, a viability, T/C (second compound 0.1 µM, first compound 3.16 µM) of 108% and a viability, T/C (second compound 0.1 µM, first compound 10 µM) of 113%. For the same compound, the viability, T/C [5] was 105%, the viability, T/C (second compound 0.316 µM, first compound 0.1 µM) was 99.5% and the viability, T/C [6] was 99%. For the same compound, the viability, T/C (second compound 0.316 µM, first compound 1 µM) was 99.8%, the viability, T/C (second compound 0.316 µM, first compound 3.16 µM) was 112% and the viability, T/C (second compound 0.316 µM, first compound 10 µM) was 107%. For the same compound, the viability, T/C [7] was 97.2%, the viability, T/C (second compound 1 µM, first compound 0.1 µM) was 90.8% and the viability, T/C [8] was 102%. It also gave a viability, T/C (second compound 1 µM, first compound 1 µM) of 99.6%, a viability, T/C (second compound 1 µM, first compound 3.16 µM) of 113% and a viability, T/C (second compound 1 µM, first compound 10 µM) of 98.3%. It also gave a viability, T/C [9] of 90.2%, a viability, T/C (second compound 3.16 µM, first compound 0.1 µM) of 79.5% and a viability, T/C [10] of 91.4%. It also gave a viability, T/C (second compound 3.16 µM, first compound 1 µM) of 89.9%, a viability, T/C (second compound 3.16 µM, first compound 3.16 µM) of 100% and a viability, T/C (second compound 3.16 µM, first compound 10 µM) of 88%. It also gave a viability, T/C [11] of 73%, a viability, T/C (second compound 10 µM, first compound 0.1 µM) of 77.9% and a viability, T/C [12] of 70.8%. The viability, T/C (second compound 10 µM, first compound 1 µM) was 77.5%, the viability, T/C (second compound 10 µM, first compound 3.16 µM) was 82.3% and the viability, T/C (second compound 10 µM, first compound 10 µM) was 79.3%.
CCc1c2c(nc3ccc(O)cc13)-c1cc3c(c(=O)n1C2)COC(=O)[C@]3(O)CC + CN(C)c1ccc(Nc2c3ccc(NC(=O)CCN4CCCC4)cc3nc3cc(NC(=O)CCN4CCCC4)ccc23)cc1 showed a pIC50 (second compound 0.0316 µM) of 7.79, a pIC50 (second compound 0.1 µM) of 7.81 and a pIC50 (second compound 0.316 µM) of 7.82. It also gave a pIC50 (second compound 1 µM) of 7.88, a pIC50 (second compound 3.16 µM) of 7.84 and a pIC50 (second compound 10 µM) of 7.62. It also gave a viability, T/C (second compound 0.0316 µM, first compound 0.000999 µM) of 95.6%, a viability, T/C (second compound 0.0316 µM, first compound 0.00316 µM) of 78.4% and a viability, T/C (second compound 0.0316 µM, first compound 0.00999 µM) of 55.4%. It also gave a viability, T/C [1] of 40.4%, a viability, T/C (second compound 0.0316 µM, first compound 0.0999 µM) of 21.6% and a viability, T/C [2] of 5.95%. It also gave a viability, T/C (second compound 0.1 µM, first compound 0.000999 µM) of 94.2%, a viability, T/C (second compound 0.1 µM, first compound 0.00316 µM) of 81.8% and a viability, T/C (second compound 0.1 µM, first compound 0.00999 µM) of 59.9%. It also gave a viability, T/C [3] of 33.8%, a viability, T/C (second compound 0.1 µM, first compound 0.0999 µM) of 18.5% and a viability, T/C [4] of 7.59%. For the same compound, the viability, T/C (second compound 0.316 µM, first compound 0.000999 µM) was 98%, the viability, T/C (second compound 0.316 µM, first compound 0.00316 µM) was 82.3% and the viability, T/C (second compound 0.316 µM, first compound 0.00999 µM) was 57.6%. It also gave a viability, T/C [5] of 34%, a viability, T/C (second compound 0.316 µM, first compound 0.0999 µM) of 21.5% and a viability, T/C [6] of 5.15%. For the same compound, the viability, T/C (second compound 1 µM, first compound 0.000999 µM) was 93.5%, the viability, T/C (second compound 1 µM, first compound 0.00316 µM) was 77% and the viability, T/C (second compound 1 µM, first compound 0.00999 µM) was 55.9%. It also gave a viability, T/C [7] of 31.4%, a viability, T/C (second compound 1 µM, first compound 0.0999 µM) of 20.2% and a viability, T/C [8] of 5.78%. For the same compound, the viability, T/C (second compound 3.16 µM, first compound 0.000999 µM) was 89.9%, the viability, T/C (second compound 3.16 µM, first compound 0.00316 µM) was 77.6% and the viability, T/C (second compound 3.16 µM, first compound 0.00999 µM) was 58.3%. For the same compound, the viability, T/C [9] was 31.9%, the viability, T/C (second compound 3.16 µM, first compound 0.0999 µM) was 21.7% and the viability, T/C [10] was 7.69%. It also gave a viability, T/C (second compound 10 µM, first compound 0.000999 µM) of 70.4%, a viability, T/C (second compound 10 µM, first compound 0.00316 µM) of 67.4% and a viability, T/C (second compound 10 µM, first compound 0.00999 µM) of 59%. It also gave a viability, T/C [11] of 48.2%, a viability, T/C (second compound 10 µM, first compound 0.0999 µM) of 27.8% and a viability, T/C [12] of 14.2%.
